One test concerns Bel-7402 cells. Put plainly: MTT antiproliferative assay, Bel-7402. In kind it is cell-based, human. Particulars: Homo sapiens, Bel-7402; MTT, 72 h, mean ± S.D. of three experiments. As for the experimental part: [The source words this procedure for another cell line and reports this cell line under the same test.] (§1) Cytotoxicity assay in vitro was employed by the MTT assay following the methodology described previously, which was performed in flat-bottomed 96-well plates. In short, exponentially growing MGC-803 cells at the log phase were added to each well at a density of 5 × 10^3 per well, then treated with serial dilutions of the compounds in three replicates at various concentrations (0.039–40 µg/mL). After 72 h, 20 µL of MTT solution (5 mg/mL) per well was added to each cultured medium. Then, DMSO was added to each well (150 µL/well). After 10 min at room temperature, the absorbance (OD) was read on a microplate reader at the wavelength of 490 nm (BIO-RAD Instruments Inc. 550, Hercules, CA, USA). In these experiments, taxol was used as the positive reference with the concentration of 10 µg/mL.

For another test, the system named is L-02 normal liver cells. Put plainly: MTT antiproliferative assay, L-02. In kind it is cell-based. Particulars: for IC50: 72 h, read-out: antiproliferative activity IC50, L-02. The method, then: [The source words this procedure for another cell line and reports this cell line under the same test.] as §1
(In general: Tetrazolium assays rely on reduction of a dye to a coloured formazan, in cell work by metabolically active cells.)

A further test deals with K562 cells. Put plainly: MTT antiproliferative assay, K562. In kind it is cell-based, human. Particulars: Homo sapiens, K562; MTT, 72 h, mean ± S.D. of three experiments. As for the experimental part: [The source words this procedure for another cell line and reports this cell line under the same test.] as §1
The next test deals with MGC-803 cells. Put plainly: MTT antiproliferative assay, MGC-803. Particulars: Homo sapiens, MGC-803; MTT, 72 h, mean ± S.D. of three experiments. In kind it is cell-based, human. The method, then:
as §1

Another test relates to CaEs-17 cells. The experiment in a line: MTT antiproliferative assay, CaEs-17. The class given is cell-based, human. Particulars: Homo sapiens, CaEs17; MTT, 72 h, mean ± S.D. of three experiments. As for the experimental part:
[The source words this procedure for another cell line and reports this cell line under the same test.] as §1

The mark [1] stands for this setting: MTT, mean ± S.D. of three experiments.

Like-named read-outs stand apart in the source and are kept apart here.

In the case of `C=C1C(=O)[C@]23[C@H](O)[C@H]1CC[C@H]2[C@@]12CO[C@]3(O)[C@@H](O)[C@@H]1C(C)(C)CC[C@@H]2O` [Compound 1, oridonin, reference compound], the IC50 amounted to 7.48 ± 0.32 µM in the test with Bel-7402 cells; 18.3 ± 0.8 µM with L-02 normal liver cells (setting [1]); 4.76 ± 0.32 µM in the test with K562 cells; 5.69 ± 0.39 µM with MGC-803 cells; 11 ± 1 µM in the test on CaEs-17 cells. In the test with L-02 normal liver cells (selectivity between tumor and normal liver cells), the “SI (selectivity index)” value is on record as “about 2.4”.
As to `O=C(O)CCC(=O)OCCOc1no[n+]([O-])c1S(=O)(=O)c1ccccc1` [Compound 7a], the IC50 in the test with Bel-7402 cells turned out to be 22 ± 0.8 µM; in the test on L-02 normal liver cells (setting [1]), 37.8 ± 1.3 µM; in the test with K562 cells, 22.6 ± 2 µM; in the test on MGC-803 cells it was 25.4 ± 1.5 µM; with CaEs-17 cells, 24.3 ± 0.9 µM.
For `O=C(O)CCCC(=O)OCCOc1no[n+]([O-])c1S(=O)(=O)c1ccccc1` [Compound 7b], in that order: 22.3 ± 1.6 µM, 39.6 ± 1.4 µM, 24.2 ± 2.5 µM, 22.2 ± 2.5 µM and 25.7 ± 1.4 µM.
On to `O=C(O)c1ccccc1C(=O)OCCOc1no[n+]([O-])c1S(=O)(=O)c1ccccc1` [Compound 7c], for which the IC50 was 19.6 ± 1 µM with Bel-7402 cells; 41.3 ± 2.9 µM in the test with L-02 normal liver cells (setting [1]); 22.6 ± 1.7 µM in the test on K562 cells; 24.6 ± 1.4 µM in the test with MGC-803 cells; 23.8 ± 1 µM in the test with CaEs-17 cells.
For `O=C(O)CCC(=O)OCCCOc1no[n+]([O-])c1S(=O)(=O)c1ccccc1` [Compound 7d], in that order: 17.8 ± 1.4 µM, 37.4 ± 0.8 µM, 17.5 ± 1.4 µM, 18.5 ± 0.8 µM and 19.8 ± 1.3 µM.
For `O=C(O)CCCC(=O)OCCCOc1no[n+]([O-])c1S(=O)(=O)c1ccccc1` [Compound 7e], in that order: 18.6 ± 0.8 µM, 36.3 ± 2.1 µM, 18.5 ± 1.6 µM, 20 ± 1.1 µM and 18.7 ± 1 µM.
For `O=C(O)c1ccccc1C(=O)OCCCOc1no[n+]([O-])c1S(=O)(=O)c1ccccc1` [Compound 7f], in that order: 16.7 ± 0.8 µM, 35.8 ± 1.3 µM, 17.5 ± 1 µM, 19.3 ± 0.6 µM and 19.2 ± 0.7 µM.
As for `O=C(O)CCC(=O)OCCCCOc1no[n+]([O-])c1S(=O)(=O)c1ccccc1` [Compound 7g], the IC50 was 22.7 ± 1 µM in the test on Bel-7402 cells; 39.4 ± 2.6 µM in the test on L-02 normal liver cells (setting [1]); 24 ± 1.4 µM in the test on K562 cells; 20.6 ± 1.7 µM in the test with MGC-803 cells; 25.7 ± 0.7 µM in the test on CaEs-17 cells.
For `O=C(O)CCCC(=O)OCCCCOc1no[n+]([O-])c1S(=O)(=O)c1ccccc1` [Compound 7h], in that order: 21.3 ± 0.7 µM, 35.4 ± 1.4 µM, 24.5 ± 1.4 µM, 23.5 ± 1 µM and 22.9 ± 1.4 µM.
For `O=C(O)c1ccccc1C(=O)OCCCCOc1no[n+]([O-])c1S(=O)(=O)c1ccccc1` [Compound 7i], in that order: 22.4 ± 1.6 µM, 37.9 ± 2.8 µM, 23 ± 1.2 µM, 21.6 ± 1.5 µM and 24.8 ± 1.5 µM.
With `C=C1C(=O)C23C(=O)OC4CCC(C)(C)C5C(=O)OCC45C2CCC1C3O` (centres unmarked) [Compound 9], the IC50 came out at 16 ± 1.1 µM with Bel-7402 cells; 26.4 ± 1.3 µM in the test with L-02 normal liver cells; 2.64 ± 0.19 µM with K562 cells; 5.84 ± 0.57 µM in the test with MGC-803 cells; 23.7 ± 1.8 µM in the test on CaEs-17 cells.
As for `C=C1C(=O)C23C(=O)OC4CCC(C)(C)C5C(=O)OCC45C2CCC1C3OC(=O)CCC(=O)OCCOc1no[n+]([O-])c1S(=O)(=O)c1ccccc1` (centres unmarked) [Compound 10a], the IC50 was found to be 1.91 ± 0.09 µM with Bel-7402 cells; 24.4 ± 0.8 µM in the test on L-02 normal liver cells (setting [1]); 2.86 ± 0.05 µM in the test on K562 cells; 2.84 ± 1.12 µM in the test on MGC-803 cells; 5.68 ± 0.53 µM with CaEs-17 cells.
For `C=C1C(=O)C23C(=O)OC4CCC(C)(C)C5C(=O)OCC45C2CCC1C3OC(=O)CCCC(=O)OCCOc1no[n+]([O-])c1S(=O)(=O)c1ccccc1` (centres unmarked) [Compound 10b], in that order: 1.75 ± 0.12 µM, 22.1 ± 1.3 µM, 2.9 ± 0.17 µM, 2.67 ± 0.24 µM and 5.56 ± 0.06 µM.
For `C=C1C(=O)C23C(=O)OC4CCC(C)(C)C5C(=O)OCC45C2CCC1C3OC(=O)c1ccccc1C(=O)OCCOc1no[n+]([O-])c1S(=O)(=O)c1ccccc1` (centres unmarked) [Compound 10c], in that order: 1.01 ± 0.04 µM, 31.2 ± 1.2 µM, 1.97 ± 0.18 µM, 1.6 ± 0.15 µM and 4.02 ± 0.14 µM.
With `C=C1C(=O)C23C(=O)OC4CCC(C)(C)C5C(=O)OCC45C2CCC1C3OC(=O)CCC(=O)OCCCOc1no[n+]([O-])c1S(=O)(=O)c1ccccc1` (centres unmarked) [Compound 10d], the IC50 in the test with Bel-7402 cells is 1.17 ± 0.02 µM; in the test with L-02 normal liver cells (setting [1]) it was 27.4 ± 1 µM; in the test on K562 cells it was 2.04 ± 0.1 µM; with MGC-803 cells it was 2.03 ± 0.15 µM; with CaEs-17 cells, 4.84 ± 0.47 µM.
For `C=C1C(=O)C23C(=O)OC4CCC(C)(C)C5C(=O)OCC45C2CCC1C3OC(=O)CCCC(=O)OCCCOc1no[n+]([O-])c1S(=O)(=O)c1ccccc1` (centres unmarked) [Compound 10e], in that order: 1.12 ± 0.09 µM, 29.3 ± 0.9 µM, 2.02 ± 0.17 µM, 1.91 ± 0.09 µM and 4.04 ± 0.23 µM.
For the molecule `C=C1C(=O)C23C(=O)OC4CCC(C)(C)C5C(=O)OCC45C2CCC1C3OC(=O)CCC(=O)OCCCCOc1no[n+]([O-])c1S(=O)(=O)c1ccccc1` (centres unmarked) [Compound 10g], the IC50 with Bel-7402 cells is 1.85 ± 0.11 µM; with L-02 normal liver cells (setting [1]), 33.9 ± 1.5 µM; in the test on K562 cells it was 2.82 ± 0.22 µM; in the test with MGC-803 cells, 2.8 ± 0.09 µM; in the test with CaEs-17 cells, 5.52 ± 0.08 µM.
For `C=C1C(=O)C23C(=O)OC4CCC(C)(C)C5C(=O)OCC45C2CCC1C3OC(=O)CCCC(=O)OCCCCOc1no[n+]([O-])c1S(=O)(=O)c1ccccc1` (centres unmarked) [Compound 10h], in that order: 1.65 ± 0.12 µM, 29.8 ± 0.9 µM, 2.78 ± 0.2 µM, 2.65 ± 0.16 µM and 5.48 ± 0.21 µM.
For `C=C1C(=O)C23C(=O)OC4CCC(C)(C)C5C(=O)OCC45C2CCC1C3OC(=O)c1ccccc1C(=O)OCCCCOc1no[n+]([O-])c1S(=O)(=O)c1ccccc1` (centres unmarked) [Compound 10i], in that order: 1.09 ± 0.09 µM, 27.7 ± 1.3 µM, 2.06 ± 0.16 µM, 1.64 ± 0.12 µM and 4.13 ± 0.29 µM.
Take `CC(=O)O[C@H]1C(=O)[C@@]2(C)[C@H]([C@H](OC(=O)c3ccccc3)[C@]3(O)C[C@H](OC(=O)[C@H](O)[C@@H](NC(=O)c4ccccc4)c4ccccc4)C(C)=C1C3(C)C)[C@]1(OC(C)=O)CO[C@@H]1C[C@@H]2O` [Taxol, reference compound]: the IC50 came to 1.89 ± 0.09 µM with Bel-7402 cells; 3.73 ± 0.17 µM in the test with L-02 normal liver cells (setting [1]); 0.41 ± 0.02 µM with K562 cells; 4.65 ± 0.29 µM in the test with MGC-803 cells; 0.43 ± 0.03 µM in the test on CaEs-17 cells.

By IC50 is commonly meant the concentration needed to halve the response being measured.

The values are drawn from publication PMC6272893, “NO-Releasing Enmein-Type Diterpenoid Derivatives with Selective Antiproliferative Activity and Effects on Apoptosis-Related Proteins” (Molecules, 2016).
